For one experiment, the system named is gastric acid secretion. The experiment can be described thus: Gastric Acid Secretion Inhibiting Effect on Conscious Dogs. In kind it is in vivo. The note with it: Canis lupus familiaris; dose 2 μmol/kg, oral (stomach tube), free base suspended in 0.5% Methocel; histamine-stimulated conscious Heidenhain pouch dogs; gastric juice collected 3 hours. On the procedure:
Gastric Acid Secretion Inhibiting Effect on Conscious Dogs
Chronic gastric fistula dogs (Heidenhain pouch dogs) were used. These dogs have been surgically provided with a gastric cannula in the pouch. Following a 4 weeks' recovery period after surgery, tests were performed once a week on each dog. Food and water were withdrawn 18 hours before each test.
Gastric acid secretion was induced by continuous infusion of histamine at individual doses (100-300 μmol/kg, h), resulting in submaximal secretion of gastric acid. At least 2 hours after onset of stimulation, when the gastric acid secertion had reached a steady level, the test compounds in the form of free base suspended in 0.5% Methocel® (90 HG, 15.000, Dow Chem. corp.), were given orally by stomach tube. The gastric juice was collected by free flow from the gastric cannula in consecutive 30 minutes samples for 3 hours. The samples were titrated to pH 7.0 with 0.1M NaOH using a Radio-meter automatic titrator and the acid output was calculated.
The percent inhibition of acid secretion was calculated by comparing in each dog the acid output in the tests to the acid output in control tests when only the vehicle was given.
For the compound `COc1c(C)cnc(CSc2nc3cc(C)ccc3[nH]2)c1C` [5-CH3, H, H, CH3, OCH3, CH3], the inhibition in vivo at 2 µmol/kg came to 60%. On to `COc1c(C)cnc(CSc2nc3cc(C(C)=O)c(C)cc3[nH]2)c1C` [5-COCH3,6-CH3, H, CH3, OCH3, CH3, 2-[2-(3,5-dimethyl-4-methoxy)pyridylmethylthio]-5-COCH3-6-CH3-benzimidazole], for which the inhibition in vivo at 2 µmol/kg turned out to be 35%. `COC(=O)c1cc2nc(SCc3ncc(C)c(OC)c3C)[nH]c2cc1C` [5-COOCH3,6-CH3, H, CH3, OCH3, CH3, 2-[2-(3,5-dimethyl-4-methoxy)pyridylmethylthio]-(5-carbomethoxy-6-methyl)benzimidazole] displayed an inhibition in vivo at 2 µmol/kg of 80%. Same read-out and setting: the same measure for `COc1ccc2[nH]c(SCc3ncc(C)c(C)c3C)nc2c1` [5-OCH3, H, H, CH3, CH3, CH3]: 75%; for `COc1ccc2[nH]c(SCc3ncc(C)c(OC)c3C)nc2c1` [5-OCH3, H, H, CH3, OCH3, CH3, 2-[2-(3,5-dimethyl-4-methoxy)pyridylmethylthio]-(5-methoxy)benzimidazole]: 75%.

Still in this experiment, the particulars now being: Canis lupus familiaris; dose 8 μmol/kg, oral (stomach tube), free base suspended in 0.5% Methocel; histamine-stimulated conscious Heidenhain pouch dogs; gastric juice collected 3 hours.
Compound `CC(=O)c1cc2nc(SCc3cc(C)c(C)cn3)[nH]c2cc1C` [5-COCH3,6-CH3, H, H, CH3, CH3] displayed an inhibition in vivo at 8 µmol/kg of 80%. The same measure, in the same setting: the same measure for `COc1c(C)cnc(CSc2nc3cc(C(C)=O)ccc3[nH]2)c1C` [5-COCH3, H, H, CH3, OCH3, CH3]: 90%; for `COC(=O)c1ccc2[nH]c(SCc3ncc(C)c(OC)c3C)nc2c1` [5-COOCH3, H, H, CH3, OCH3, CH3]: 50%.

The values are drawn from patent publication US4746667A, “Pharmaceutical composition containing 2-(2-benzimidazolyl thiomethyl) pyridine” (priority 1981, dated 1988).
